Holding throughout (experiment): inhibition of tumour cell growth, NCI panel, 48 h
Assay [1] has as its system ACHN renal.
For assay [2], the system named is MDA-MB-231 breast.
The test system of assay [3] is MDA-MB-435.
Assay [4] relates to MCF7 breast.
The test system of assay [5] is SNB-19 CNS.
In assay [6] the test system is SF-295 CNS.
Assay [7] relates to XF 498 CNS.
The subject of assay [8] is KM20L2 colon.
In assay [9] the test system is DMS 114 small cell lung.
Assay [10] deals with DMS 273 small cell lung.
Assay [11] deals with HOP-18 NSCLC.

Several values for one entry are separate records, joined by “and”; a condition that tells them apart may be missing. Identical values can stand only once.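 Following 48 hours of exposure in 96-well plates, responses at five concentrations were used to interpolate endpoints linearly. Here, GI50 denotes the concentration required for 50% inhibition of growth. TGI denotes the concentration required for complete inhibition of growth.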

In the case of `Clc1ccc(/C=C/c2nc(-c3ccc(Cl)cc3)cn3c2nc2ccccc23)cc1`, the TGI in assay [1], in assay [2], in [3], in assay [4] and in assay [5] was over 100 µM in each case.
On to `O=S(=O)(c1ccccc1)[C@@H]1[C@H]2C=C[C@](CS)(O2)[C@H]1S(=O)(=O)c1ccccc1`, for which the TGI in assay [1], in [2], in assay [3], in assay [4], in assay [5] and in assay [6] was over 100 µM throughout.
As to `Oc1ccc(NCc2cc(O)ccc2O)cc1`, the TGI in assay [1] amounted to 29.6 µM; in [2], 29.2 µM; in [3], 32 µM; in [4], 34.2 µM; in assay [5], 35.1 µM; in assay [6], 38.3 µM.
Turning to `CCOC(=O)c1c(SC)nc(-c2ccc(Cl)cc2)sc1=N`, the TGI was over 100 µM in assay [1]; over 100 µM in assay [2]; over 100 µM in assay [3]; 83.4 µM in assay [4]; over 100 µM in assay [5]; over 100 µM in [6].
Take `COc1cccc2c1C(=O)c1c(O)c3c(c(O)c1C2=O)C[C@@](O)(C(C)=O)C[C@@H]3OC1CC(N(C)C)C(O)C(C)O1` (some centres not stated): the GI50 was 0.00902 µM in [1]; under 0.0133 µM in assay [8]; under 0.0199 µM in assay [9]; 0.0054 µM in [10]; 0.0396 µM in [5]; 0.0188 µM and 0.0254 µM in assay [6]. Further, the TGI is 0.005 µM in assay [2]; 0.00234 µM in [3]; 0.403 µM and 0.0877 µM in [7]; 0.307 µM and 0.367 µM in [8]; 0.302 µM and 0.274 µM in assay [9]; 0.405 µM in assay [4]. Besides, the TGI is 0.204 µM and 0.18 µM in assay [10]; 0.585 µM and 2.17 µM in [11].
Regarding `CC1C(O)[C@@]2(OC[C@@]34C(=O)CC5(O)[C@H](CCC6Cc7nc8c(nc7C[C@]65C)CC5CC[C@@H]6C7=C[C@H]9O[C@@]%10(O[C@@](C)(CO)C[C@@H]%10O)C(C)[C@@]9(O)[C@]7(C)[C@@H](O)CC6[C@]5(C)C8)C3=CC[C@H]4C2C)OC1(C)C` (some centres not stated), the TGI turned out to be 0.0669 µM in [8]; 0.0942 µM in assay [9]; 0.625 µM in assay [4]; 0.000455 µM in assay [10]; 0.206 µM in assay [5]; 3.43 µM in assay [11]. This compound gave a TGI in assay [6] of under 0.000355 µM.
For `COc1cc(CCC(=O)O)c2cc3ccccc3cc2c1O`, the TGI was 32.2 µM in assay [1]; 41.4 µM in [2]; 34.4 µM in [3]; 34.4 µM in assay [4]; 60.5 µM in [5]; 37.6 µM in assay [6].
Regarding `O=NN(CCCl)C(=O)Nc1ccc(Cl)c(Cl)c1`, the TGI in assay [7] is 99.7 µM; in assay [8], over 69.3 µM; in assay [9], over 100 µM; in assay [4], over 100 µM; in [10], over 100 µM; in assay [5], over 100 µM. The values for the TGI in assay [11] and in [6] were over 26.2 µM and over 100 µM, respectively.
In the case of `O=[N+]([O-])c1ccc(/C=N/n2c(CCc3n[nH]c(=S)n3/N=C/c3ccc([N+](=O)[O-])o3)n[nH]c2=S)o1`, the TGI in assay [1] is 63.4 µM; in assay [2] it was 52.4 µM; in assay [3], 35.3 µM; in assay [4] it was 39.7 µM; in assay [6], over 100 µM.
Take `O=C1CSc2sc(=S)sc2S1`: the TGI in assay [7], in assay [8], in assay [9], in [4], in assay [10] and in assay [5] was over 100 µM throughout. The TGI in [11] and in assay [6] was over 100 µM throughout.
On to `O=[P+](O)c1cccs1`, for which the TGI in assay [1], in assay [7], in assay [8], in assay [9], in assay [10] and in assay [5] was over 100 µM in each case. In addition, the TGI in assay [11] and in [6] was over 100 µM in each case.
With `CC(C)(C)OC(=O)N1CCCC1C(=O)NCCNc1ccc(NCCNC(=O)C2CCCN2C(=O)OC(C)(C)C)c2c1C(=O)c1ccccc1C2=O` (configuration not stated), the TGI in [1] is 31.6 µM; in assay [2], 25.9 µM; in [3] it was 39.8 µM; in assay [4] it was 34.2 µM; in assay [6] it was 32 µM.
`Cc1ccc(NC(=O)CC(=O)n2nc(-c3ccccc3)c(N=Nc3ccccc3C(=O)O)c2-c2ccccc2)cc1`: the TGI in assay [1], in [8], in assay [10], in assay [5] and in [6] was over 100 µM throughout.
`O=C(Nc1sccc1S(=O)(=O)c1ccc(Cl)cc1)c1ccc(Cl)cc1Cl`: the TGI in [1], in assay [2], in [3], in assay [4], in assay [5] and in assay [6] was over 100 µM in each case.
`C[As](C)SCC(NC(=O)CCC(N)C(=O)O)C(=O)NCC(=O)O.Cl.c1ccncc1` (configuration not stated): the TGI was 1.1 µM in [1]; 0.912 µM in assay [2]; 1.07 µM in [3]; 1.14 µM in assay [4]; 25.5 µM in assay [5]; 12.7 µM in [6].
Turning to `COC[C@@H]1Cc2cc(OC)c3c(c2[C@H](c2ccc(OC)c(OC)c2)[C@H]1COC)OCO3`, the TGI in [1], in [7], in assay [8], in assay [9], in assay [10] and in assay [5] was over 100 µM throughout. Also, the TGI in assay [11] and in [6] was over 100 µM in each case.
On to `O=CNNC(=O)CSc1nc2ccc(I)cc2c(=O)n1Cc1ccccc1`, for which the TGI in [1] was over 100 µM; in assay [2] it was 81.8 µM; in assay [3], over 100 µM; in assay [4], over 100 µM; in [5], over 100 µM; in [6] it was over 100 µM.
Take `COC1=CCC2=C(CCN(C(=O)C3CC3)C2Cc2ccc(OC)c(O)c2)C1` (configuration not stated): the TGI was over 100 µM in assay [1]; over 100 µM in [2]; 68.8 µM in assay [3]; over 100 µM in assay [4]; over 100 µM in assay [5]; over 100 µM in assay [6].
Take `O=CN(O)CC(=O)O.[Ni]`: the TGI in assay [1], in [2], in assay [3], in assay [4], in [5] and in [6] was over 100 µM throughout.
Regarding `O=C1/C(=C/c2ccc3c(c2)OCO3)Sc2scc(-c3ccc(O)c(O)c3)[n+]21`, the TGI in assay [1] is 3.94 µM; in [2], over 28.8 µM; in [3], 13.5 µM; in [4] it was over 35.2 µM; in assay [5], 36.2 µM; in [6] it was 25.5 µM.
For the compound `CC(=O)C1=C(C)N(c2ccc(C)cc2)C2(O)C=CC(=O)C3=C(O)c4ccccc4C(=O)C312` (configuration not stated), the TGI is 36.8 µM in assay [1]; 70.2 µM in assay [2]; over 100 µM in assay [4]; over 100 µM in [5]; 43.3 µM in assay [6].
`Nc1nccc2c1ncn2C1C=C(CO)C(O)C1O` (configuration not stated): the GI50 in [7] was 817 µM; in [9] it was 2.18 µM; in [10], 6.13 µM; in assay [5] it was over 1000 µM. The TGI in assay [7], in [9], in assay [10] and in assay [5] was over 1000 µM each time.
`CC(=O)OCC1OC(N2C(=O)CC(N)=Nc3ccccc32)C(OC(C)=O)C(OC(C)=O)C1OC(C)=O` (configuration not stated): the TGI in assay [1], in [2], in [3], in [4], in assay [5] and in assay [6] was over 100 µM throughout.
As for `CC(C)(C)C(=O)CC(=O)C(F)(F)C(F)(F)C(F)(F)F.CC(C)(C)C(=O)CC(=O)C(F)(F)C(F)(F)C(F)(F)F.CC(C)(C)C(=O)CC(=O)C(F)(F)C(F)(F)C(F)(F)F.[Er]`, the TGI in assay [1], in assay [2], in assay [3], in assay [4], in [5] and in assay [6] was over 100 µM each time. For the same compound, the GI50 in assay [4] is over 100 µM.
With `CN(CCNC(=O)c1cn(C)c2c1ccc1cc(Cl)ccc12)CCNC(=O)c1cn(C)c2c1ccc1cc(Cl)ccc12`, the TGI came out at 9.73 µM in assay [1], 71.8 µM in assay [2] and 3.47 µM in assay [3].

The values are drawn from PubChem BioAssay (NCI).
